Data reported in paper PMC11724075, “Small-molecule-induced ERBB4 activation to treat heart failure” (Nature Communications, 2025).
Values joined by “and” are separate entries in the source; they are usually repeats but may differ in a detail not shown here. Equal entries are not always repeated. Blank lines part the entries; values can stand above or below the compound they belong to.

Key:
[1] = test system: mouse model of AngII-induced myocardial fibrosis; test: AngII-induced myocardial fibrosis mouse model, 4 weeks, Masson's trichrome fibrosis, wild type mice; format: in vivo; design: key to Total fibrosis male in vivo WT with EF-1 / Total fibrosis female in vivo WT with EF-1 / Total fibrosis male in vivo WT with NA-1: fibrotic (blue-stained) area / total area
Method: Four weeks after implantation, cardiac ultrasound was performed, mice were euthanized, and hearts were collected. A similar set-up was used for the 1-week study (Alzet, model 1007D) in male mice (n = 9-10 mice in every group).
Hearts were fixed in 4% PFA, paraffin-embedded, and cut into 5-µm sections. Images were acquired with an Olympus BX43 microscope (Olympus Stream Motion Software) or a CELENA® S Digital Imaging System and analyzed with ImageJ 2.14.0 software. Collagen distribution was visualized by Masson’s trichrome staining. Cardiac total fibrosis was expressed as the ratio of positively stained fibrotic area (blue) to the total area and perivascular fibrosis as the ratio of fibrotic area to vascular lumen area. Scar size was determined by measuring the scar length over the […]. Hypertrophy and vascularisation were visualized via an isolectin-B4/WGA/DAPI staining. Quantification was performed by a person blinded to the treatment protocol.

[2] = molecular target: T1, ERBB4 receptor (Homo sapiens, UniProt Q15303); test: Fluorescence-based competition binding assay with F-NRG1 (flow cytometry) on U2OS ERBB4/ERBB4 cells; conditions: for Fluorescence-based competition assay with NRG1 and EF-1 (normalized signal): individual replicates
T1 construct: host or cells: U2OS (osteosarcoma cells), PathHunter engineered line
T1 sequence (Q15303 26-1308): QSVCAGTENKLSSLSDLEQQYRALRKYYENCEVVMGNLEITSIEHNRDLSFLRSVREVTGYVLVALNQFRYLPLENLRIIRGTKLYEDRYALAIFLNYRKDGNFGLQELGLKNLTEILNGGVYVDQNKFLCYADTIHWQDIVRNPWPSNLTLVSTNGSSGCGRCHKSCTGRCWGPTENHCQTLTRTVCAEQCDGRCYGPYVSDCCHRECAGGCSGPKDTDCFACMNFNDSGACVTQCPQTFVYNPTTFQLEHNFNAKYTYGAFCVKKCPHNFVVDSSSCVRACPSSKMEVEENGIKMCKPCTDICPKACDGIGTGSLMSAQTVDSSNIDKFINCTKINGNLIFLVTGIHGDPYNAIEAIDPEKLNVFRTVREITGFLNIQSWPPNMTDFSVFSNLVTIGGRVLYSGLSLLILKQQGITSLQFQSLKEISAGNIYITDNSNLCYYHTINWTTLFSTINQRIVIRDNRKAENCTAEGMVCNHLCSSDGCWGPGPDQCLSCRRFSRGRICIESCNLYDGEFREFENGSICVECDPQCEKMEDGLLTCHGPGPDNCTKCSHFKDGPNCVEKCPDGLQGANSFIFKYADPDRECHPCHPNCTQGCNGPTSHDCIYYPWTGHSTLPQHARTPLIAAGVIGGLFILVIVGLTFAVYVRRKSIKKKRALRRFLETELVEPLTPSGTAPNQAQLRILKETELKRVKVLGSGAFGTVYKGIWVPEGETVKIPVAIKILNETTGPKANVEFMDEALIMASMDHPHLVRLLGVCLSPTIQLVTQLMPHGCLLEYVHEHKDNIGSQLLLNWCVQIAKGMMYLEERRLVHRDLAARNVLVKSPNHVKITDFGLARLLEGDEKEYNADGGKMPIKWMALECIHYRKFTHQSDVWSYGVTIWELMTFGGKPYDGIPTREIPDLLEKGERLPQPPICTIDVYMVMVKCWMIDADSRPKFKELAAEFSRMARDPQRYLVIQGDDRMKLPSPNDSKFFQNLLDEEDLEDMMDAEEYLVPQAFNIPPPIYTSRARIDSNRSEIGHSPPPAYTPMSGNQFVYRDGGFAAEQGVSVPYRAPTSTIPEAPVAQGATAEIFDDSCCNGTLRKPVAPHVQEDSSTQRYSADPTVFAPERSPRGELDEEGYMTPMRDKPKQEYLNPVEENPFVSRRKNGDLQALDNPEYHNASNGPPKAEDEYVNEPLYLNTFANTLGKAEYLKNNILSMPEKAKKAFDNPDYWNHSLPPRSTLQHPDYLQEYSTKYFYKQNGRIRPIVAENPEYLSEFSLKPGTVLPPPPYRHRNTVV
T1 sequence (Q15303 26-1308): as above
Method: NRG1 was dissolved in PBS at a concentration of 1 mg/mL and labeled with Alexa Fluor 488 using the Alexa Fluor 488 microscale protein labeling kit (Thermo Fisher Scientific, A30006). A Bio-gel P-4 (Bio-Rad, 1504124) fine resin suspended in PBS and a dye:protein molar ratio of 5 was used to purify the labeled NRG1 according to the manufacturer’s instructions. Fluorescent labeling was evaluated by performing a dose-response experiment using F-NRG1 (1–1000 nM) on the U2OS ERBB4/ERBB4 dimerization cell line. Next, the same cell line was used to perform a competition binding assay with F-NRG1 using flow cytometry. Cells were plated in transparent U-bottom 96-well plates (Greiner Bio-One, M9436) at 5 × 10^5 cells/mL in 50 μL ice-cold buffer (PBS with 0.1% bovine serum albumin (BSA; Sigma-Aldrich, A7906) and 0.05% sodium azide (Sigma-Aldrich, S2002)). Next, cells were centrifuged at 17,968 × g for 4 min at RT and the supernatants were discarded. The cell pellets were washed with 50 μL ice-cold buffer by gently pipetting up and down. Centrifugation and washing were repeated, and the supernatants were discarded. For the competition assay between NRG1 and F-NRG1, cells were treated with NRG1 (1–100 nM) and F-NRG1 (30 nM). […] After gentle mixing of each sample, the plate was incubated for 1 h at 4 °C on a microplate shaker. Next, the plate was centrifuged at 17,968 × g for 4 min at RT and the supernatants were discarded. The cells were then washed with 100 μL ice-cold buffer, pelleted by centrifugation and washed again. The supernatants were discarded and 100 μL ice-cold buffer was added to the cell pellets and pipetted up and down to generate single-cell suspensions. These suspensions were transferred to 5-mL polystyrene round-bottom tubes, kept on ice, and exposed to minimum light until flow cytometric analysis (BD Accuri C6, BD Biosciences). Unstained cells were used to set the parameters of the flow cytometer.
Supplementary Figure 3. Receptor binding assay. (a) Fluorescence-based competition assay between […]
The Y-axis represents the […]
percentage of specific binding of F-NRG1, the x-axis represents the molar concentration of unlabeled […]
(b) DRC showing t he effect of NRG1 (full line with full circle) on the […]
1x10-6 M NRG1; n=5 biological replicates for NRG1 + EF -1 10 µM for all concentrations of NRG1, except […]
concentrations of NRG1, except n=2 for 3x10-7 M and 1x10-6 M NRG1). All data are presented as mean ± SD. Source data are provided as a Source Data file . CPD, compound; DRC; dose response curve; FC, fold change; F-NRG1, fluorescent ly labeled NRG1; M, molar concentration; NRG1, neuregulin-1; Veh, […]

[3] = test system: iAMs; test: EdU proliferation assay in proliferating iAMs; format: cell-based, rat; conditions: for EdU-positive nuclei compared to the vehicle group (in words): EF-1 32 µM or NRG1 0.1 µM, 24 h; for In vitro EdU-positive cell count: individual replicates
Method: EdU proliferation assay was performed using the Click-iT^TM EdU Cell Proliferation Kit for Imaging (ThermoFisher Scientific, C10337) following the protocol. Proliferating iAMs were seeded at a density of 10^5 cells/well in proliferating medium in 24-well plates and incubated overnight. […] Afterwards, the cell culture media were then replaced with 10 µM EdU in proliferating medium and incubated for 24 h at 37 °C. Next, iAMs were fixed with 4% PFA for 30 min at 4 °C. Cells were washed thrice with PBS, permeabilized by incubation with 0.1% Triton X-100 for 10 min at RT and counterstained with DAPI. Images were obtained by fluorescence microscopy (Celena S).

[4] = female wild type mice, AngII/EF-1 group, individual animals
[5] = male wild type mice, AngII/EF-1 group, individual animals
[6] = male wild type mice, EF-1 group (no AngII), individual animals

Compound: Cc1sc2nc(SC(C)C(=O)NCc3ccc4c(c3)OCO4)n(-c3ccccc3)c(=O)c2c1C (stereo not drawn) [NA-1]
Perivascular fibrosis male in vivo WT with NA-1 ([1]; AngII/NA-1, individual animals): 1.271 and 2.289 and 2.187 and 2.2768 | Total fibrosis male in vivo WT with NA-1 ([1]; AngII/NA-1, individual animals): 7.18 and 11.9815 and 8.108 and 8.95 | effect on AngII-induced interstitial and perivascular fibrosis (in words) ([1]; male wild type mice, NA-1 2 mg/kg/day): did not significantly prevent interstitial or perivascular AngII-induced fibrosis

IC50 ([2]; 30 nM F-NRG1, U2OS ERBB4/ERBB4 cells, read-out: IC50, reduction of binding of fluorescent NRG1 (F-NRG1) to the ERBB4 receptor): 32 nM | Fluorescence-based competition assay with NRG1 and EF-1 (normalized signal) ([2]; concentration 100 pM): 100 | Fluorescence-based competition assay with NRG1 and EF-1 (normalized signal) ([2]; concentration 9e-8 M): 47.1877 and 5.376 and 43.6793 | Fluorescence-based competition assay with NRG1 and EF-1 (normalized signal) ([2]; concentration 1e-7 M): 0
Compound: neuregulin-1 [NRG1]
Fluorescence-based competition assay with NRG1 and EF-1 (normalized signal) ([2]; concentration 1e-9 M): 68.5222 and 84.1596 and 93.8458 and 74.5974 and 128.088 and 100 | Fluorescence-based competition assay with NRG1 and EF-1 (normalized signal) ([2]; concentration 3e-9 M): 80.2455 and 83.5978 and 102.302 and 89.9396 and 83.9805 and 87.652 | Fluorescence-based competition assay with NRG1 and EF-1 (normalized signal) ([2]; concentration 1e-8 M): 67.9682 and 69.1706 and 85.6667 and 81.6967 | Fluorescence-based competition assay with NRG1 and EF-1 (normalized signal) ([2]; concentration 3e-8 M): 77.0259 and 43.4293 and 100.206 and 81.3756 and 87.2588 and 82.6252 and 67.1018 and 62.6829 and 44.3344 and 108.803 | Fluorescence-based competition assay with NRG1 and EF-1 (normalized signal) ([2]; concentration 5e-8 M): 65.1587 and 61.7658 and 51.2875 and 66.8315 | Fluorescence-based competition assay with NRG1 and EF-1 (normalized signal) ([2]; concentration 7.5e-8 M): 7.1162 and 78.7156 and 54.3916 and 66.0513 and 10.1361 and 60.285 and -8.7833 and 64.1512 | EdU-positive nuclei compared to the vehicle group (in words) [3]: significant decrease in EdU-positive nuclei | In vitro EdU-positive cell count [3]: 0.7207 and 0.8932 and 0.8227 and 0.7581 and 0.7231

Compound: O=C(NC1CC1)C(Sc1nc2ccccc2c(=O)n1C1CCCC1)c1ccccc1 (stereo not drawn) [EF-1]
competition with F-NRG1 binding (in words) ([2]; EF-1 0.1–100 μM, 30 nM F-NRG1): did not reduce binding of F-NRG1 | Fluorescence-based competition assay with NRG1 and EF-1 (normalized signal) ([2]; concentration 100 pM): 100 | Fluorescence-based competition assay with NRG1 and EF-1 (normalized signal) ([2]; concentration 1e-7 M): 100 and 98 and 104 | Fluorescence-based competition assay with NRG1 and EF-1 (normalized signal) ([2]; concentration 1e-6 M): 102 and 93 and 105 | Fluorescence-based competition assay with NRG1 and EF-1 (normalized signal) ([2]; concentration 1e-5 M): 98 (2×) and 92 | Fluorescence-based competition assay with NRG1 and EF-1 (normalized signal) ([2]; concentration 0.0001 M): 94 (2×) and 95 | EdU-positive nuclei compared to the vehicle group (in words) [3]: significant decrease in EdU-positive nuclei | In vitro EdU-positive cell count [3]: 0.7127 and 0.7822 and 0.8185 and 0.7982 and 0.7621 | Perivascular fibrosis female in vivo WT with EF-1 [1, 4]: 1.006 and 0.6567 and 0.4251 and 0.5106 and 0.5866 and 0.41 and 0.775 and 0.451 | Total fibrosis female in vivo WT with EF-1 [1, 4]: 0.56 and 1.25 and 0.75 and 1.11 and 0.5 and 0.41 and 1.42 and 0.66 | effect on AngII-induced interstitial and perivascular fibrosis (in words) ([1]; male and female wild type mice, EF-1 2 mg/kg/day, 4 weeks): significantly prevented both interstitial and perivascular fibrosis | Perivascular fibrosis male in vivo WT with EF-1 [1, 5]: 2.195 and 0.9604 and 0.7595 and 1.184 and 2.0179 | Total fibrosis male in vivo WT with EF-1 [1, 5]: 1.541 and 0.4939 and 0.5555 and 0.9884 and 1.07 | Perivascular fibrosis male in vivo WT with EF-1 [1, 6]: 0.7074 and 0.782 and 0.418 and 0.8908 | Total fibrosis male in vivo WT with EF-1 [1, 6]: 0.8052 and 0.5165 and 0.1613 and 0.2053
